# Test results taken from patent publication US20250017931A1, “METHODS OF PERSONALIZING CANCER TREATMENT” (PROCESSA PHARMACEUTICALS, INC.,, priority 2023, published 2025).
# Where two headings read alike, the source gives them in different places.
# Assays:
# [1] = human, in vivo
# Method: 40 mg of PCS6422 was administered to the subjects on both of day 1 and day 5 (Cohort 2B) or on only day 1 (Cohort 2D). Subsequently, 75 mg of capecitabine was administered to the subjects twice daily (morning and night) on days 2-8 followed by 6 days of a drug-free period (days 9-14).
# Blood samples for PK analysis of PCS6422 and its major metabolite, 5-acetyluracil in Cycle 1 on Day 1 was drawn at 0 (pre-dose), 1, 2, 3, 5, 7, 9 and 24 hours. The 24-hour post dose sample was collected prior to capecitabine administration on Day 2.
# On the first day of capecitabine treatment (Cycle 1, Day 2), blood samples for PK analysis of capecitabine, 5-fluorouracil (5-FU), and the quantifiable main metabolites, α-fluoro-β-alanine (FBAL), 5′-deoxy-5-fluorocytidine (5′-DFCR), and doxifluridine (5′-DFUR) were obtained at the following time points relative to administration of the first dose of capecitabine […]: 0 (pre-dose), 0.5, 1, 2, 3, 5, 7, and 9 hours. In Cycle 1 on Day 8, blood samples were obtained at the following time points relative to administration of the morning dose of capecitabine at time 0 (pre-dose/trough), 0.5, 1, 2, 3, 5, 7, and 9 hours.
# Additional PK blood samples for capecitabine and its main metabolites were obtained prior to administration of the morning dose of capecitabine on Days 3, 4, 5, 6, 7, 9. Validated analytical methods were used to determine the concentrations of PCS6422, 5-aceyluracil, capecitabine, 5-FU, FBAL, 5′-DFCR, and 5′-DFUR in plasma.
# [2] = molecular target: T1, dihydropyrimidine dehydrogenase (DPD) (Homo sapiens, UniProt Q12882); conditions: cited from earlier work
# T1 sequence (Q12882 4-1025): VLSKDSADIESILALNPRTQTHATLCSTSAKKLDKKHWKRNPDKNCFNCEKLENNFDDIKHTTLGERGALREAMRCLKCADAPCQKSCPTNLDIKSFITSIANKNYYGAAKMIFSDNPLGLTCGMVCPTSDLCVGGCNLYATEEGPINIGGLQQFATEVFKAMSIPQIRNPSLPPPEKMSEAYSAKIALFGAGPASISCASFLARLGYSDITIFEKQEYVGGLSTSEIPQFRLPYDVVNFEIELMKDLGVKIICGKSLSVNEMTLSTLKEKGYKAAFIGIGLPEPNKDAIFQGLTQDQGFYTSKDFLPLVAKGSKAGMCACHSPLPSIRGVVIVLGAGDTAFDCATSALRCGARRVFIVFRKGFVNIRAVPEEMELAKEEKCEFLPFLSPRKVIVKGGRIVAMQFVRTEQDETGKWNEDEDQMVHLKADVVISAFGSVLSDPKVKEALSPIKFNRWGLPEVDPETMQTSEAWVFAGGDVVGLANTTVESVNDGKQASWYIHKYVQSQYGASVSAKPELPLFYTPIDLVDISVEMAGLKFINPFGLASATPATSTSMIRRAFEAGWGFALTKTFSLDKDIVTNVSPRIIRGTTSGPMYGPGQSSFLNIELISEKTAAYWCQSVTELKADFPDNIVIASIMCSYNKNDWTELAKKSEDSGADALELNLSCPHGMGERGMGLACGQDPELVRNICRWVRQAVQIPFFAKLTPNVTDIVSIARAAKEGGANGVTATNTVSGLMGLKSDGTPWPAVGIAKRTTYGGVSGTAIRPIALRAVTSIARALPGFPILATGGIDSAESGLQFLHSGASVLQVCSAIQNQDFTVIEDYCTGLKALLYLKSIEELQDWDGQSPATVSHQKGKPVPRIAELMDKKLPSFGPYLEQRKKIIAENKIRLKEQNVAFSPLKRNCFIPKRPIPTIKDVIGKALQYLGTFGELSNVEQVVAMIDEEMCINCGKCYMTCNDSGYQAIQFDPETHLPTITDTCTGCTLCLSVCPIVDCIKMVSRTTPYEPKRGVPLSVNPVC
# [3] = human, in vivo; remark: listed apart in the source
# Method: 40 mg of PCS6422 is administered to the subjects on day 1. Subsequently, 75 mg of capecitabine is administered to the subjects daily (Cohort 1) or twice daily (Cohort 2A, morning and night) on days 2-8 followed by 6 days of a drug-free period (days 9-14).
# Blood samples for pharmacokinetic (PK) analysis of PCS6422 and its major metabolite, 5-acetyluracil, are drawn in cycle 1 on day 1 at 0 (pre-dose), 1, 2, 3, 5, 7, 9, and 24 hours post PCS6422 administration. On the first day of capecitabine treatment (Cycle 1, day 2), blood samples for PK analysis of capecitabine, 5-fluorouracil (5-FU), and the quantifiable main metabolites, α-fluoro-β-alanine (FBAL), 5′-deoxy-5-fluorocytidine (5′-DFCR), and doxifluridine (5′-DFUR) are obtained at the following time points relative to administration of the first dose of capecitabine (dose 1): 0 (pre-dose/trough), 0.5, 1, 2, 3, 5, 7, and at 9 hours. In cycle 1 on Day 8, blood samples are obtained at the following time points relative to administration of the dose of capecitabine (dose 7 of cycle 1): 0 (pre-dose/trough), 0.5, 1, 2, 3, 5, 7, 9, 24, 30, and 48 hours post-capecitabine dose. A capecitabine blood sample is also drawn on cycle 2, day 1, prior to the dose of PCS6422.
# Blood samples are also drawn for the analysis of DPD activity using uracil and dihydrouracil concentrations at screening and at the following times during Cycle 1: Day 1, Day 2, Day 8, Day 9, and Day 10. A blood sample is also drawn on Cycle 2, day 1 prior to the dose of PCS6422. All blood samples for analysis of uracil and dihydrouracil concentrations are taken prior a subject's meal, if possible. Actual sample time is recorded. Validated analytical methods are used to determine the concentrations of PCS6422, 5-acetyluracil, capecitabine, 5-FU, FBAL, 5′-DFCR, and 5′-DFUR, uracil, and/or dihydrouracil in plasma.
# [4] = laboratory animals; cited from earlier work
# [5] = molecular target: T1, dihydropyrimidine dehydrogenase (DPD); conditions: background statement; cited from earlier work
compound,measurement,setting,value
"O=c1[nH]cc(F)c(=O)[nH]1 [5-FU, 5-fluorouracil]",highest 5-FU plasma concentration (Cp high) during 0-9 hours following capecitabine dosing,[1],197 to 746 ng/mL
same,lowest 5-FU plasma concentration (Cp low) during 0-9 hours following capecitabine dosing,[1],6.4 to 283 ng/mL
same,5FU D 9,[1]; 168 h,<2 ng/mL
same,fraction of administered 5-FU catabolized by DPD,[2]; background statement,over 80%
same,5-FU elimination half-life,[2]; with DPD inhibited by PCS6422,several hours
same,5-FU elimination half-life,[2]; without PCS6422,10 to 20 min
same,5FU D 8 0-9 hrs Cp Low,[3],<2 ng/mL
same,5FU D 8 Cmin,[3],<2 ng/mL
same,5FU D 9,[3],<2 ng/mL
same,highest 5-FU plasma concentration (Cp high) during 0-9 hours following capecitabine dosing,[3],309 to 466 ng/mL
same,lowest 5-FU plasma concentration (Cp low) during 0-9 hours following capecitabine dosing,[3],8.1 to 164 ng/mL
"NCC(F)C(=O)O (stereo not drawn) [FBAL, α-fluoro-β-alanine]",FBAL Cp high on Day 2 (0-9 hours post capecitabine dose),[1],15 to 33.1 ng/mL
same,effect on anti-tumor activity of 5-FU,[4],decrease the anti-tumor activity of 5-FU
same,FBAL Cp high on Day 2 (0-9 hours post capecitabine dose),[3],15 to 26 ng/mL
same,FBAL Cp low on Day 2 (0-9 hours post capecitabine dose),[3],15 to 22.6 ng/mL
"C#Cc1c[nH]c(=O)[nH]c1=O [PCS6422, 5-ethynyl-1H-pyrimidine-2,4-dione]",inactivation of DPD,[5],potent and irreversible inactivator
